From BindingDB's records for patent US12378251 (Shanghai Institute Of Materia Medica, 2025) come the findings set out here.

The structures appear in SMILES notation. Bounds are passed on as bounds.

In this assay the target is NEDD8-activating enzyme E1 regulatory subunit/NEDD8-activating enzyme E1 catalytic subunit (Human, UniProt Q8TBC4). Description: Test of Inhibiting NAE Enzyme Activity at the Molecular Level. As to the method: 1. Preliminary Evaluation Experiment of Inhibiting NAE Enzyme Activity at the Molecular Level by CompoundsHomogeneous Time-Resolved Fluorescence (HTRF) technology was used to detect the in vitro inhibitory effect of the compound on NAE enzyme activity. […] IC50 was calculated with a GraphPad software.
NEDD8-activating enzyme E1 regulatory subunit/NEDD8-activating enzyme E1 catalytic subunit, sequence (Q13564 whole entry): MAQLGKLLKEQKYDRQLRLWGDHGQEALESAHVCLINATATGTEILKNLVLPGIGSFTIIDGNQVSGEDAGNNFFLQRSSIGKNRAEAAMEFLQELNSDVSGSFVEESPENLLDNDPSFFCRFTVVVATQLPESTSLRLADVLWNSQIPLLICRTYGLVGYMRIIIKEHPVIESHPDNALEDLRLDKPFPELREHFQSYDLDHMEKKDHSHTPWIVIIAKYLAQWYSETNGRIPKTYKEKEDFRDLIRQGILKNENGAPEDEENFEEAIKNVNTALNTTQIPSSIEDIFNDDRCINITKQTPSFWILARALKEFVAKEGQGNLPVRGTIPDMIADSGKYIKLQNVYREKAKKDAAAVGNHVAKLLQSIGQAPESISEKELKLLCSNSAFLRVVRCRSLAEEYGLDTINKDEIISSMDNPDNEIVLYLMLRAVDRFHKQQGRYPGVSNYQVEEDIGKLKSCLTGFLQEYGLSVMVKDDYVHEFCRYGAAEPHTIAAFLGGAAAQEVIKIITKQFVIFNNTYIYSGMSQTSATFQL
NEDD8-activating enzyme E1 regulatory subunit/NEDD8-activating enzyme E1 catalytic subunit, sequence (Q8TBC4 whole entry): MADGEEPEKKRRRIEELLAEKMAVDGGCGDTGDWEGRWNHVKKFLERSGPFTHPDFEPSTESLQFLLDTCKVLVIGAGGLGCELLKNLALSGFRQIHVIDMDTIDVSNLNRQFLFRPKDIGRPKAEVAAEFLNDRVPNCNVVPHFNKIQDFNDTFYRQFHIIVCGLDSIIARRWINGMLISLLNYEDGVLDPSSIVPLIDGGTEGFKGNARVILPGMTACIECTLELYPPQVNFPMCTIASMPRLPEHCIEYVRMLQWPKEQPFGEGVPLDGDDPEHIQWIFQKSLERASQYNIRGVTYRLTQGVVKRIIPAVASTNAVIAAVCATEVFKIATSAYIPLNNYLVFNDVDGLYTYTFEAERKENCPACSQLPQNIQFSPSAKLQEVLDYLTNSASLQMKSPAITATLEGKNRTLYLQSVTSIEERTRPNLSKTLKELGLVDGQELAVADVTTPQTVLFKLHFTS
`NS(=O)(=O)OCC1CC(n2nnc3c(N[C@H]4CCc5ccccc54)ncnc32)CC1O` (some centres undefined) [US12378251, Compound S1]: the IC50 is < 100 nM.

`NS(=O)(=O)OCC1CC(n2nnc3c(NCc4ccccc4F)ncnc32)CC1O` (centres undefined) [US12378251, Compound S2]: the IC50 was < 100 nM.

For `NS(=O)(=O)OCC1CC(n2nnc3c(NCc4cccs4)ncnc32)CC1O` (centres undefined) [US12378251, Compound S3], the IC50 was < 100 nM.

As to `NS(=O)(=O)OCC1CC(n2nnc3c(NCc4ccco4)ncnc32)CC1O` (centres undefined) [US12378251, Compound S4], the IC50 was < 100 nM.

`NS(=O)(=O)OCC1CC(n2nnc3c(NCCc4ccccc4)ncnc32)CC1O` (centres undefined) [US12378251, Compound S6]: the IC50 is < 100 nM.

Consider `CCCCCCNc1ncnc2c1nnn2C1CC(O)C(COS(N)(=O)=O)C1` (centres undefined) [US12378251, Compound S8], for which the IC50 is < 100 nM.

Regarding `NS(=O)(=O)OCC1CC(n2nnc3c(N[C@@H]4c5ccccc5C[C@@H]4O)ncnc32)CC1O` (some centres undefined) [US12378251, Compound S9], the IC50 was < 100 nM.

In the case of `NS(=O)(=O)OCC1CC(n2nnc3c(N[C@H]4CC5(CCNCC5)c5ccccc54)ncnc32)CC1O` (some centres undefined) [US12378251, Compound S14], the 50% inhibitory concentration (IC50) is < 100 nM.

For the molecule `NS(=O)(=O)OC[C@@H]1C[C@@H](n2nnc3c(N[C@@H]4C[C@H]4c4ccc(F)c(F)c4)ncnc32)CC1O` (some centres undefined) [US12378251, Compound S16], the IC50 is > 1000 nM.

In the case of `NS(=O)(=O)OCC1CC(n2nnc3c(Nc4n[nH]c5ccccc45)ncnc32)CC1O` (centres undefined) [US12378251, Compound S17], the IC50 was > 1000 nM.

For the molecule `NS(=O)(=O)OCC1CC(n2nnc3c(Nn4ccc5ccccc54)ncnc32)CC1O` (centres undefined) [US12378251, Compound S18], the IC50 was > 1000 nM.

Turning to `NS(=O)(=O)OCC1CC(n2nnc3c(Nc4cnc5ccccn45)ncnc32)CC1O` (centres undefined) [US12378251, Compound S19], the IC50 is > 1000 nM.

Consider `COC(=O)[C@H]1C=C[C@@H](Nc2ncnc3c2nnn3C2CC(O)C(COS(N)(=O)=O)C2)C1` (some centres undefined) [US12378251, Compound S20], for which the IC50 was < 100 nM.

For the molecule `NS(=O)(=O)OCC1CC(n2nnc3c(NC4CCCC4)ncnc32)CC1O` (centres undefined) [US12378251, Compound S21], the IC50 is > 1000 nM.

Broadly, the IC50 is the concentration that inhibits the measured activity by half. The low end stands for inhibition by little substance, the high end for a need for much substance.
